Assays:
[1] = system: isolated rat soleus muscles; test: Measurement of force in an in vitro model: isolated rat soleus nerve-muscle preparation with tubocurarine; format: cell-based; conditions: Rattus norvegicus, 40 min; 50 μM test compound, after 40 mins of compound exposure; 115 nM tubocurarine for 90 mins; read-out: Point increase (%) of initial force that was restored
Description: FIG. 2. […] Force traces from a representative muscle stimulated to contract in 1) control condition before addition of neuromuscular blocking agent, 2) the force response to stimulation after 90 minutes incubation with Tubocurarine. […] The traces presented in panel A (1, 2, 3), correspond to the dotted lines in panel B, respectively.
Recovery of force is quantified as the percentage of the force prior to tubocurarine that is recovered by the compound.
The current disclosure relates to compounds that inhibit CIC-1 ion channels and increase muscle excitability and thereby improve muscle function in clinical conditions where muscle activation is failing. Such conditions result in loss of contractile function of skeletal muscle, weakness and excessive fatigue. In this series of experiments the compounds were tested for their ability to restore contractile function of isolated rat muscle when the neuromuscular transmission had been compromised akin to neuromuscular disorders.
Experimentally, soleus muscles from 4-5 week old rats were isolated with the motor nerve remaining attached. The nerve-muscle preparations were mounted in experimental setups that enabled electrical stimulation of the motor nerve. Stimulation of the motor nerve led to activation of the muscle fibres and ensuing force production that was recorded. The nerve-muscle preparations were also in these experiments incubated in the standard Krebs Ringer (see example 5) and the solution was heated to 30° C. and continuously equilibrated with a mixture of 95% O2 and 5% CO2, pH˜7.4.
After mounting the nerve-muscle preparation in the experimental setup, the contractile function of the muscle was initially assessed under the control conditions (FIG. 2A). […] The experimental condition mimics the failing neuromuscular transmission in a range of neuromuscular disorders. After addition of tubocurarine the contractile force declined over the next 90 mins to 10-50% of the control force. 50 μM of the test compound was then added and the contractile force recovered despite the continued presence of tubocurarine. To quantify the ability of the compound to restore force the percentage of the initial force that was restored was determined after 40 mins of compound exposure (FIG. 2B) and the point increase is reported in Table 3.

female Lewis rats = test: In situ muscle contractile characteristics (isometric hindlimb force) under Cisatracurium infusion; format: in vivo, rat; conditions: 21.6 mg/kg i.v.; 80 Hz stimulation; neuromuscular transmission partially inhibited by Cisatracurium
Description: Isometric hindlimb force was measured in 12-week old female Lewis rats in the presence and absence of compound.
Rats were placed under anesthesia with isoflurane (2-4%), intubated and subsequently connected to a micro ventilator (Microvent 1, Hallowell EMC, US). Two stimulation electrodes were inserted through the skin to stimulate the sciatic nerve. A small incision was made proximal to the ankle, to expose the Achilles tendon, which was tied by cotton string, and connected to a force transducer (Fort250, World Precision Instruments) with adjustable position (Vernier control). The Achilles tendon was then cut distal to the attached cotton string. […]
Muscle contractile properties were assessed by applying an electrical current (under supramaximal voltage conditions) to the nerve and recording the force generated by the muscle. The muscle was stretched until maximal force was obtained, when assessed by 2 Hz stimulation. Isometric force was measured every 30 seconds at 12 Hz (Twitch), 10 pulses, and at every 5 minutes at 80 Hz (Tetanic) for 1 second (80 pulses). […] The effect of test article was assessed on its ability to increase force generated from the stimulation pattern applied. The effect was assessed in the ability to increase force per se (tetanic, 80 Hz, stimulation), and the ratio between individual twitch peaks (12 Hz stimulation). […]

Row | SMILES | activation at 50 µM [1] [%] | increase in tetanic force (female Lewis rats) [%]
1 | C[C@H](Oc1ccc(Cl)cc1)C(=O)NOC1CCC1 [Compound C-80, (2S)-2-(4-chlorophenoxy)-N-cyclobutoxypropanamide] | 47 | 
2 | C[C@H](Oc1ccc(Br)cc1F)c1nn[nH]n1 [Compound E-8, 5-[(1S)-1-(4-bromo-2-fluorophenoxy)ethyl]-2H-1,2,3,4-tetrazole] | 34 | 11

Source: patent US20220274938A1, “5-[(1S)-1-(4-BROMOPHENOXY)ETHYL]-2H-TETRAZOLE DERIVATIVES AND RELATED COMPOUNDS AS CLC-1 ION CHANNEL INHIBITORS FOR TREATING NEUROMUSCULAR DISORDERS” (NMD PHARMA A/S, priority 2019, published 2022)
